# Data: US9029377B2, “Platelet-activating factor receptor antagonists” (Merck Sharp & Dohme Corp., priority 2009, dated 2015)
# Molecular target: PAFR (Homo sapiens, UniProt P25105)
# Assay: PAF Binding Assay (PAFR binding)
# Chain of PAFR (P25105 whole entry): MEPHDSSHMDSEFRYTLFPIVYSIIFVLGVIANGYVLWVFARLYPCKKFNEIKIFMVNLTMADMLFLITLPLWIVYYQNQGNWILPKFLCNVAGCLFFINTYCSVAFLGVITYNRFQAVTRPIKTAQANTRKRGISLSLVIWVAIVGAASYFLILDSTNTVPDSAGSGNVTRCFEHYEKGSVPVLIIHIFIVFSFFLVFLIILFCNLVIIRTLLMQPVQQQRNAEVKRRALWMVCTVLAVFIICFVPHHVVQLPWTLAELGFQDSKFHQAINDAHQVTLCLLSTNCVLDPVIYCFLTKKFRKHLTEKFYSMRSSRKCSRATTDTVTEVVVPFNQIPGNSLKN
row,IC50 [nM],Compound
1,2.5,"O=S(=O)(N[C@H]1CCC[C@@H](n2cnnc2C2CC2)C1)c1ccc(-c2noc(C3CCC3)n2)cc1OC(F)(F)F [Compound 2Bc, 4-(5-cyclobutyl-1,2,4-oxadiazol-3-yl)-N-[(1S,3R)-3-(3-cycloropyl-4H-1,2,4-triazol-4-yl)cyclohexyl]-2-(trifluoromethoxy)benzenesulfonamide]"
2,1.8,"O=S(=O)(N[C@H]1CCC[C@@H](n2cnnc2)C1)c1cc(-c2cc3ccccc3o2)cc(C(F)(F)F)c1 [Compound 3Aae, 3-(1-benzofuran-2-yl)-N-[(1S,3R)-3-(4H-1,2,4-triazol-4-yl)cyclohexyl]-5-(trifluoromethyl)benzenesulfonamide]"
3,337,"O=S(=O)(N[C@H]1CCC[C@@H](n2cnnc2)C1)c1ccc(-c2noc(C3(O)CC3)n2)cc1C1CC1 [Compound 2Ke, 2-cyclopropyl-4-[5-(1-hydroxycyclopropyl)-1,2,4-oxadiazol-3-yl]-N-[(1S,3R)-3-(4H-1,2,4-triazol-4-yl)cyclohexyl]benzenesulfonamide]"
